Legend:
Selumetinib = compound: Cn1cnc2c(F)c(Nc3ccc(Br)cc3Cl)c(C(=O)NOCCO)cc21 [Selumetinib]; conditions: max 10 µM
In short: (§1)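 After 24 hours at 37°C and 5% CO2 in 1536-well plates holding 7.5 μl of DMEM/F12 or RPMI with 10% FBS, cancer cell lines were dosed for 72 hours, with final DMSO typically 0.2%. Viability came from CellTiter-Glo 2.0 luminescence, scaled between the means of blank wells and DMSO wells. A non-linear mixed effects model fitted a two-parameter logistic curve to each dose response to give the single-agent IC50.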

Savolitinib = compound: C[C@@H](c1ccc2nccn2c1)n1nnc2ncc(-c3cnn(C)c3)nc21 [Savolitinib]; conditions: max 1 µM
In short: as §1

Crizotinib = compound: C[C@@H](Oc1cc(-c2cnn(C3CCNCC3)c2)cnc1N)c1c(Cl)ccc(F)c1Cl [Crizotinib]; conditions: max 10 µM
In short: as §1

Taselisib = compound: Cc1nc(-c2cn3c(n2)-c2ccc(-c4cnn(C(C)(C)C(N)=O)c4)cc2OCC3)n(C(C)C)n1 [Taselisib]; conditions: max 10 µM
In short: as §1

Dasatinib = compound: CC1=C(C(=CC=C1)Cl)NC(=O)C2=CN=C(S2)NC3=CC(=NC(=N3)C)N4CCN(CC4)CCO [Dasatinib]; conditions: max 2 µM
In short: as §1

SG3199 = compound: CC1=CN2[C@@H](C1)C=NC3=CC(=C(C=C3C2=O)OC)OCCCCCOC4=C(C=C5C(=C4)N=C[C@@H]6CC(=CN6C5=O)C)OC [SG3199]; conditions: max 0.001 µM
In short: as §1

SRA737 = compound: N#Cc1cnc(Nc2cc(NC[C@H]3CNCCO3)c(C(F)(F)F)cn2)cn1 [SRA737]; conditions: max 10 µM
In short: as §1

Olaparib = compound: O=C(c1cc(Cc2n[nH]c(=O)c3ccccc23)ccc1F)N1CCN(C(=O)C2CC2)CC1 [Olaparib]; conditions: max 10 µM
In short: as §1

5-Fluorouracil = compound: O=c1[nH]cc(F)c(=O)[nH]1 [5-Fluorouracil]; conditions: max 20 µM
In short: as §1

Prexasertib = compound: COc1cccc(OCCCN)c1-c1cc(Nc2cnc(C#N)cn2)n[nH]1 [Prexasertib]; conditions: max 1 µM
In short: as §1

AZD5363 = compound: C1CN(CCC1(C(=O)N[C@@H](CCO)C2=CC=C(C=C2)Cl)N)C3=NC=NC4=C3C=CN4 [AZD5363]; conditions: max 10 µM
In short: as §1

AZD2811 = compound: CCN(CCO)CCCOc1ccc2c(Nc3cc(CC(=O)Nc4cccc(F)c4)[nH]n3)ncnc2c1 [AZD2811]; conditions: max 1 µM
In short: as §1

Etoposide = compound: COc1cc([C@@H]2c3cc4c(cc3[C@@H](O[C@@H]3O[C@@H]5CO[C@@H](C)O[C@H]5[C@H](O)[C@H]3O)[C@H]3COC(=O)[C@H]23)OCO4)cc(OC)c1O [Etoposide]; conditions: max 10 µM
In short: as §1

Palbociclib = compound: CC(=O)c1c(C)c2cnc(Nc3ccc(N4CCNCC4)cn3)nc2n(C2CCCC2)c1=O [Palbociclib]; conditions: max 10 µM
In short: as §1

Trametinib = compound: CC(=O)Nc1cccc(-n2c(=O)n(C3CC3)c(=O)c3c(Nc4ccc(I)cc4F)n(C)c(=O)c(C)c32)c1 [Trametinib]; conditions: max 1 µM
In short: as §1

Doxorubicin = compound: COc1cccc2c1C(=O)c1c(O)c3c(c(O)c1C2=O)C[C@@](O)(C(=O)CO)C[C@@H]3O[C@H]1C[C@H](N)[C@H](O)[C@H](C)O1 [Doxorubicin]; conditions: max 1 µM
In short: as §1

MK-2206 = compound: NC1(c2ccc(-c3nc4ccn5c(=O)[nH]nc5c4cc3-c3ccccc3)cc2)CCC1 [MK-2206]; conditions: max 10 µM
In short: as §1

AZD6738 = compound: C[C@@H]1COCCN1C2=NC(=NC(=C2)C3(CC3)[S@](=N)(=O)C)C4=C5C=CNC5=NC=C4 [AZD6738]; conditions: max 10 µM
In short: as §1

Gefitinib = compound: COc1cc2ncnc(Nc3ccc(F)c(Cl)c3)c2cc1OCCCN1CCOCC1 [Gefitinib]; conditions: max 10 µM
In short: as §1

Alisertib = compound: COc1cc(Nc2ncc3c(n2)-c2ccc(Cl)cc2C(c2c(F)cccc2OC)=NC3)ccc1C(=O)O [Alisertib]; conditions: max 10 µM
In short: as §1

AZD8186 = compound: C[C@@H](Nc1cc(F)cc(F)c1)c1cc(C(=O)N(C)C)cc2c(=O)cc(N3CCOCC3)oc12 [AZD8186]; conditions: max 10 µM
In short: as §1

Lapatinib = compound: CS(=O)(=O)CCNCc1ccc(-c2ccc3ncnc(Nc4ccc(OCc5cccc(F)c5)c(Cl)c4)c3c2)o1 [Lapatinib]; conditions: max 10 µM
In short: as §1

AZD5153 = compound: COc1nnc2ccc(N3CCC(c4ccc(OCCN5CCN(C)C(=O)[C@H]5C)cc4)CC3)nn12 [AZD5153]; conditions: max 1 µM
In short: as §1

AZD1775 = compound: C=CCn1c(=O)c2cnc(Nc3ccc(N4CCN(C)CC4)cc3)nc2n1-c1cccc(C(C)(C)O)n1 [AZD1775]; conditions: max 3 µM
In short: as §1

Carboplatin = compound: C1CC(C1)(C(=O)[O-])C(=O)[O-].N.N.[Pt+2] [Carboplatin]; conditions: max 10 µM
In short: as §1

AZD0156 = compound: CN(C)CCCOc1ccc(-c2ccc3ncc4c(c3c2)n(C2CCOCC2)c(=O)n4C)cn1 [AZD0156]; conditions: max 3 µM
In short: as §1

AZD7648 = compound: Cc1cc2ncnn2cc1Nc1ncc2c(n1)n(C1CCOCC1)c(=O)n2C [AZD7648]; conditions: max 10 µM
In short: as §1

AZD5991 = compound: Cc1c2c(nn1C)CSCc1cc(n(C)n1)CSc1cc(c3ccccc3c1)OCCCc1c(C(=O)O)n(C)c3c-2c(Cl)ccc13 [AZD5991]; conditions: max 1 µM
In short: as §1

AZD4320 = compound: CN(CC[C@H](CSC1=CC=CC=C1)NC2=C(C=C(C=C2)S(=O)(=O)NC(=O)C3=CC=C(C=C3)N4CCC(CC4)[C@H](C5=CC=CC=C5C6=CC=C(C=C6)Cl)O)S(=O)(=O)C(F)(F)F)CCO [AZD4320]; conditions: max 1 µM
In short: as §1

Gemcitabine = compound: Nc1ccn([C@@H]2O[C@H](CO)[C@@H](O)C2(F)F)c(=O)n1 [Gemcitabine]; conditions: max 0.3 µM
In short: as §1

[1] = compound: O=C(Nc1ccc2[nH]nc(-c3ccncc3)c2c1)[C@@H]1CCN(CC(=O)N2CCN(c3ccc(-c4ncccn4)cc3)CC2)C1; conditions: max 5 µM
In short: as §1

Paclitaxel = compound: CC(=O)O[C@H]1C(=O)[C@@]2(C)[C@H]([C@H](OC(=O)c3ccccc3)[C@]3(O)C[C@H](OC(=O)[C@H](O)[C@@H](NC(=O)c4ccccc4)c4ccccc4)C(C)=C1C3(C)C)[C@]1(OC(C)=O)CO[C@@H]1C[C@@H]2O [Paclitaxel]; conditions: max 3 µM
In short: as §1

Venetoclax = compound: CC1(C)CCC(CN2CCN(c3ccc(C(=O)NS(=O)(=O)c4ccc(NCC5CCOCC5)c([N+](=O)[O-])c4)c(Oc4cnc5[nH]ccc5c4)c3)CC2)=C(c2ccc(Cl)cc2)C1 [Venetoclax]; conditions: max 1 µM
In short: as §1

SN-38 = compound: CCc1c2c(nc3ccc(O)cc13)-c1cc3c(c(=O)n1C2)COC(=O)[C@]3(O)CC [SN-38]; conditions: max 0.3 µM
In short: as §1

AZD1390 = compound: CC(C)n1c(=O)n(C)c2cnc3cc(F)c(-c4ccc(OCCCN5CCCCC5)nc4)cc3c21 [AZD1390]; conditions: max 0.3 µM
In short: as §1

Cell Line: KARPAS-299 (T-Cell Non-Hodgkin's Lymphoma)
- IC50, cell viability 72 h (Selumetinib): > 10 µM
- IC50, cell viability 72 h (Savolitinib): > 1000 nM
- IC50, cell viability 72 h (Crizotinib): 846 nM
- IC50, cell viability 72 h (Taselisib): > 10 µM
- IC50, cell viability 72 h (Dasatinib): > 2000 nM
- IC50, cell viability 72 h (SG3199): > 1 nM
- IC50, cell viability 72 h (SRA737): 1130 nM
- IC50, cell viability 72 h (Olaparib): > 10 µM
- IC50, cell viability 72 h (5-Fluorouracil): 4.46 µM
- IC50, cell viability 72 h (Prexasertib): 5.15 nM
- IC50, cell viability 72 h (AZD5363): > 10 µM
- IC50, cell viability 72 h (AZD2811): > 1000 nM
- IC50, cell viability 72 h (Etoposide): 3.37 µM
- IC50, cell viability 72 h (Palbociclib): > 10 µM
- IC50, cell viability 72 h (Trametinib): > 1000 nM
- IC50, cell viability 72 h (Doxorubicin): 523 nM
- IC50, cell viability 72 h (MK-2206): > 10 µM
- IC50, cell viability 72 h (AZD6738): 698 nM
- IC50, cell viability 72 h (Gefitinib): > 10 µM
- IC50, cell viability 72 h (Alisertib): > 10 µM
- IC50, cell viability 72 h (AZD8186): > 10 µM
- IC50, cell viability 72 h (Lapatinib): > 10 µM
- IC50, cell viability 72 h (AZD5153): 115 nM
- IC50, cell viability 72 h (AZD1775): 459 nM
- IC50, cell viability 72 h (Carboplatin): > 10 µM
- IC50, cell viability 72 h (AZD0156): > 3000 nM
- IC50, cell viability 72 h (AZD7648): > 10 µM
- IC50, cell viability 72 h (AZD5991): 326 nM
- IC50, cell viability 72 h (AZD4320): > 1000 nM
- IC50, cell viability 72 h (Gemcitabine): 26.6 nM
- IC50, cell viability 72 h [1]: > 5 µM
- IC50, cell viability 72 h (Paclitaxel): 30.6 nM
- IC50, cell viability 72 h (Venetoclax): 708 nM
- IC50, cell viability 72 h (SN-38): 35.7 nM
- IC50, cell viability 72 h (AZD1390): > 300 nM

Cell Line: KYSE-450 (Esophageal Squamous Cell Carcinoma)
- IC50, cell viability 72 h (Selumetinib): > 10 µM
- IC50, cell viability 72 h (Savolitinib): > 1000 nM
- IC50, cell viability 72 h (Crizotinib): > 10000 nM
- IC50, cell viability 72 h (Taselisib): 7.52 µM
- IC50, cell viability 72 h (Dasatinib): > 2000 nM
- IC50, cell viability 72 h (SG3199): > 1 nM
- IC50, cell viability 72 h (SRA737): > 10000 nM
- IC50, cell viability 72 h (Olaparib): > 10 µM
- IC50, cell viability 72 h (5-Fluorouracil): > 20 µM
- IC50, cell viability 72 h (Prexasertib): 226 nM
- IC50, cell viability 72 h (AZD5363): > 10 µM
- IC50, cell viability 72 h (AZD2811): > 1000 nM
- IC50, cell viability 72 h (Etoposide): > 10 µM
- IC50, cell viability 72 h (Palbociclib): > 10 µM
- IC50, cell viability 72 h (Trametinib): > 1000 nM
- IC50, cell viability 72 h (Doxorubicin): > 1000 nM
- IC50, cell viability 72 h (MK-2206): > 10 µM
- IC50, cell viability 72 h (AZD6738): > 10000 nM
- IC50, cell viability 72 h (Gefitinib): > 10 µM
- IC50, cell viability 72 h (Alisertib): > 10 µM
- IC50, cell viability 72 h (AZD8186): > 10 µM
- IC50, cell viability 72 h (Lapatinib): > 10 µM
- IC50, cell viability 72 h (AZD5153): > 1000 nM
- IC50, cell viability 72 h (AZD1775): 614 nM
- IC50, cell viability 72 h (Carboplatin): > 10 µM
- IC50, cell viability 72 h (AZD0156): > 3000 nM
- IC50, cell viability 72 h (AZD7648): > 10 µM
- IC50, cell viability 72 h (AZD5991): > 1000 nM
- IC50, cell viability 72 h (AZD4320): > 1000 nM
- IC50, cell viability 72 h (Gemcitabine): > 300 nM
- IC50, cell viability 72 h [1]: > 5 µM
- IC50, cell viability 72 h (Paclitaxel): 67.7 nM
- IC50, cell viability 72 h (Venetoclax): > 1000 nM
- IC50, cell viability 72 h (SN-38): > 300 nM
- IC50, cell viability 72 h (AZD1390): > 300 nM
